These results are taken from a melting point compilation (Tetko et al.; mined from patent text by program, amines drawn as free bases though some values may be those of a salt).

Bounds are passed on as bounds.

The melting point is the temperature of the solid-liquid transition. With `Cc1cccc(-c2nc3ccc(OCCCl)cc3n2Cc2ccccc2)c1`, the melting point was 88 °C.

In the case of `Cc1nnc2ccc(-c3cccs3)nn12`, the melting point lay in the range of 152 to 153 °C. The same measure for `CCNc1nc2ccccc2n(-c2ccc(Cl)cc2)c1=O`: 192 to 195 °C.

On to `Nc1nc2c(ncn2OCCCOCP(=O)(O)O)c(=O)[nH]1`, for which the melting point lay within 247 to 250 °C. The same measure for `CNS(=O)(=O)c1cc(Cl)sc1C(=O)O`: 103 to 104 °C; for `CSc1ccc(C(=O)c2ccc(SC)cc2O)cc1`: 113 to 114 °C; for `CC(C)NC(=O)N1C2=NC(C)(C)N(C)C(=O)N2c2ccccc21`: 93 to 96 °C.

`Cc1cc(O)n2nc(CN)nc2n1` returned a melting point of 204 to 207 °C. The same measure for `COCCNc1nc(C)nc2c1nnn2-c1ccc(C(C)C)cc1Br`: 134 to 136 °C. As for `N#CC(=NNC(=N)N)c1cccc(Cl)c1Cl`, the figure is 221 to 222 °C; as for `Cc1c(C(F)(F)F)ncn(-c2c(Cl)cc(C(F)(F)F)cc2C#N)c1=O`, 154 to 155 °C. The same measure for `CC(C)N1CCN(c2ccc(Nc3cc(-c4ccc5c(CCO)cn(C)c5c4)c(Cl)n4ccnc34)nc2)CC1`: 181 °C. In turn, `COc1cc(Cc2cnc(NCCSCc3nc[nH]c3C)[nH]c2=O)ccn1` returned a melting point of 177 to 178 °C. The same measure for `CCCc1nc2c(ccc3cc(C(=O)N4CCC(Cc5ccccc5)CC4)[nH]c32)o1`: 195 to 196 °C; for `CCCCCCCCCCCCCCCCOc1ccc(-c2nc(CC(=O)O)c(OCC)o2)cc1`: 89 to 91 °C. As for `O=[N+]([O-])c1c(Br)nn(Cc2ccccc2)c1Br`, the figure is 128 °C. The same measure for `COC(=O)C(C)Oc1ccc(COc2ccc(-n3nc(C)n(C(F)F)c3=O)c(F)c2)cc1` (centres undefined): 83 to 85 °C; for `Cc1cc(Cl)ccc1OCC(=O)N1Cc2ccc(C(=O)CCc3ccccc3)n2Cc2ccccc21`: 130 to 134 °C; for `CC1(C)Cc2c(cc(C(C)(C)C)c(O)c2C(C)(C)C)S1`: 79 °C. The compound `CCCCOCCOc1ccc(-c2ccc(N3CCC(C(=O)OC)C3)c(C=C(C)C(=O)O)c2)cc1` (centres undefined) returned a melting point of 140 to 141 °C. As for `Cc1cc(C)c2c(c1C)OCC2c1ccc(C(C)C)cc1` (centres undefined), the figure is 48 to 49 °C; as for `CCOC(=O)c1cnoc1-c1cc(Cl)cc(Cl)c1`, 50 to 51 °C; as for `C=CCc1c(C(C)C)nc(C(C)C)c(CO)c1-c1ccc(F)cc1`, 69 to 71 °C. Take `COc1cccc2c1C(O)c1ccccc1C21CCN(C)CC1` (centres undefined): the melting point is 149 to 151 °C.

Compound `CCN1C(=O)C(C(=O)Nc2ccc(F)cc2F)c2cc(C(C)=O)ccc21` (centres undefined) returned a melting point of 160 to 161 °C.

As to `COc1ccc(CC2CCC3=C(C2)CC(C)C(=O)N3)cc1` (centres undefined), the melting point is 182 to 184 °C. The same measure for `CN1CCC(Oc2[nH]nc(-c3ccc(Cl)cc3)c2-c2ccncc2)CC1`: 256 to 257 °C; for `CC(=O)N(N1C(=O)C(NC(=O)Nc2cccc(C)c2)CC(c2ccccc2)CC1c1ccccc1)C(C)(C)C` (single isomer, unassigned; (-)): 140 to 150 °C. The same measure for `CCCNC(=S)n1nc(Oc2c(Cl)cc(C(F)(F)F)cc2Cl)cc1C`: 71 to 73 °C. As for `CCn1ncc2c3noc(-c4ccc(OC)cc4)c3cnc21`, the figure is 215 to 216 °C; as for `O=C(CNC(=O)c1ccc([N+](=O)[O-])c(F)c1)OCC(Cl)(Cl)Cl`, 142 to 144 °C; as for `OC1CSC(Sc2ccccc2C(F)(F)F)C(O)C1O` (centres undefined), 114 to 115 °C.

For `Cc1cccc(N2CCN(CCCON3C(=O)c4ccccc4C3=O)CC2)c1`, the melting point lay in the range of 127 to 128 °C. As for `CC(C)CCCC(NC(=O)OC(C)(C)C)c1nc(-c2cccc(Br)c2)c[nH]1` (centres undefined), the figure is 134 to 136 °C; as for `CCCCOC(=O)c1cccc(I)c1C(=O)NC(C)(C)CS(C)=O` (centres undefined), 57.5 to 66.3 °C. As for `CC1(C)OC(=O)c2c(O)cc(OCc3ccccc3)cc2O1`, the figure is 80 °C; as for `Cc1nn(C)c(OC(=O)C(Cl)=C(Cl)Cl)c1C(=O)c1ccc(Cl)cc1Cl`, 141 to 142 °C. As for `O=C1N(Cc2nc3ccccc3s2)c2ccccc2C12COc1cc3c(cc12)OCCO3` (centres undefined), the figure is 164 to 166 °C; as for `COc1cc(C(=O)NS(=O)(=O)c2ccccc2C)ccc1Cc1cn(CC(=O)N(C)C)c2ccc(NC(=O)CC3CCCC3)cc12`, 215 to 218 °C. Turning to `N#Cc1ncc(Cl)nc1Br`, the melting point is 66 to 67 °C. As for `CCCCCCCCCCCCOc1ccc(-c2cc3ccccc3[nH]2)cc1OC`, the figure is 104 °C.

Take `O=C(c1ccccc1)N1CCNc2ncc(I)cc21`: the melting point was 164 to 166 °C. As for `CCOC(=O)C1=C(COCCn2c(C)nnc2-c2ccccc2)NC(C)=C(C(=O)Nc2ccccn2)C1c1ccccc1Cl` (centres undefined), the figure is 167 to 169 °C; as for `CCCNC(C)=NC(=Nc1ccccc1)N1CCOCC1`, 101 to 103 °C; as for `C#Cc1ccc2c(c1)C(c1ccccc1F)=NC(C)c1c(C(=O)OCC)ncn1-2` (centres undefined), 212 to 214 °C. In the case of `CCOc1cc(C(=O)N2CCN(C(=O)C3=Cc4cc(OC)c(OC)cc4CCC3)CC2)cc(OCC)c1OCC`, the melting point is 125 to 126 °C.

The compound `O=C(NCCCCCCCCCCCC(=O)OCC12CC3CC(CC(C3)C1)C2)NC12CC3CC(CC(C3)C1)C2` came in with a melting point of 68 °C. In the case of `CCCCc1nc(CO)c(C(=O)OC)n1Cc1ccc(-c2ccccc2C(=O)OC(C)(C)C)cc1`, the melting point worked out at 99 °C. As for `CC(=O)NNc1nc(C(F)(F)F)nc(-c2ccc(S(C)(=O)=O)cc2)c1-c1ccccc1F`, the figure is 281 to 283 °C. The same measure for `Cc1ccc(S(=O)(=O)N2CCC3(C=Cc4ccccc43)CC2)cc1`: 168 to 170 °C. As for `CC(C)Nc1cccnc1N1CCN(C(=O)c2ccc(C(=O)NCCN3CCOCC3)cc2)CC1`, the figure is 114 to 116 °C.

The compound `NC(=NO)C1CCN(C(=O)OCc2ccccc2)CC1` showed a melting point of 111 to 113 °C. The same measure for `O=C(NCc1ccccc1)c1ccnc(NC(=O)c2cccs2)c1`: 160 to 162 °C; for `C1=CCC23C=CC=CN2c2nccn2C3=C1` (centres undefined): 258 to 260 °C. As for `CCOC(=O)C(C#N)=CNc1csc(-c2ccccc2)c1`, the figure is 190 to 193 °C; as for `CC1CN(c2ccc(N)cc2Cl)C(=O)O1` (centres undefined), 140 to 141 °C. As for `CC(=O)Nc1ccc(S(=O)c2ccc(Cl)cc2)cc1` (centres undefined), the figure is 160 to 162 °C; as for `Cc1cc(C(F)(F)F)c2cccc(O)c2n1`, 60 to 61 °C. Take `CCCCCCc1cc2c(cc1C(=O)O)CCCCC2(C)C`: the melting point lay within 74 to 75 °C.

Consider `OCc1ccc(-c2csc(-c3cn([C@H]4CN5CCC4CC5)nn3)c2)cc1`, for which the melting point amounted to 196 °C. As for `COC(=O)C1(C)CCCC2(C)c3c(OC)cc(C(C)C)c(OC)c3CCC12` (centres undefined), the figure is 133 to 135 °C; as for `CON=Cc1c[nH]c(-c2ccc(F)cc2)c1-c1ccncc1`, 242 to 248 °C; as for `O=c1c2c[nH]c3c(c-2nn1-c1ccccc1)CCC3`, over 350 °C. The same measure for `COc1ccc(CC2CNC(=O)N2)cc1OCc1ccccc1` (centres undefined): 154 to 157 °C; for `COc1cc(C#N)ccc1C=O`: 112 to 114 °C; for `CCOC(=O)COc1cc(-c2cc3nccnc3[nH]2)ccc1OC`: 183 to 184 °C.

In turn, `O=C(O)CCC(O)c1ccc(-c2ccccc2)c(Cl)c1` (centres undefined) gave a melting point of 87 to 88 °C. The same measure for `OCCOCCNc1ncncc1Cc1ccccc1`: 86 to 87 °C. The same measure for `COc1cc(OC)nc(-n2nc(C)n(N)c2=O)n1`: 219 °C; for `CCCn1c(=O)[nH]c(Cl)c(-c2ccccc2)c1=O`: 230 to 231 °C. The same measure for `COC(=O)NC(CCc1ccc(Cl)cc1)C(=O)O` (centres undefined): 113 to 114 °C. For the compound `CN(C)Cc1nnc2n1-c1ccc(Cl)cc1C(c1ccccc1Cl)=NC2`, the melting point lay within 199 to 201 °C.

The compound `COc1cc(OC)c(-c2nc(N3CC(C)NC(C)C3)c3c(C)c(C#N)sc3n2)cc1OC` (centres undefined) displayed a melting point of 186 to 188 °C.

Compound `CC(=O)Nc1nc2c(ncn2COC(COC(C)=O)COC(C)=O)c(=O)[nH]1` had a melting point of 172 °C. As for `Cc1cn(-c2cc(Br)c3c(c2)CCC(=O)N3)c(C)n1`, the figure is 242 °C; as for `COc1ccc(C(C)(O)CO)cc1CN[C@H]1C2CCN(CC2)[C@H]1C(c1ccccc1)c1ccccc1` (some centres undefined), 65.5 to 82.8 °C. For `Nc1ccc2oc([N+](=O)[O-])c(-c3ccccc3)c2c1`, the melting point lay within 125 to 127 °C. In the case of `COc1cccc(Nc2c([N+](=O)[O-])cc(C(=O)O)cc2S(N)(=O)=O)c1`, the melting point lay within 253 to 254 °C. As for `CN(C1CCN(CCCC(F)(F)F)CC1)S(=O)(=O)c1ccc(Nc2nccc(Nc3ccc(F)c(F)c3)n2)cc1`, the figure is 192 °C; as for `CC(c1ccccc1)C(C(=O)c1ccc(Cl)cc1)n1cncn1` (centres undefined), 163 to 165 °C. As for `Cn1ncc2c1-c1c(Oc3ccccc3)sc(C(=O)O)c1CC2`, the figure is 259 to 261 °C; as for `O=Cc1cn(-c2c(Cl)cc(C(F)(F)F)cc2Cl)c2ccccc12`, 167 to 169 °C. As for `COc1c(N2CC3CCC3(NC(=O)OC(C)(C)C)C2)c(F)cc2c(=O)c(C(=O)O)cn(C3CC3)c12` (centres undefined), the figure is 211 to 213 °C; as for `O=C1N(CCCl)c2ccc(F)cc2C12SCCCS2`, 122 °C. Compound `O=C1Nc2ccccc2C12COc1c(Cl)cc3c(c12)OCCO3` (centres undefined) returned a melting point of 255 to 257 °C. As for `N#Cc1c(Nc2ccccc2)cccc1Oc1ccccc1`, the figure is 146 to 147 °C; as for `CCCCOCCOc1ccc(-c2cnc(N3CCC(C)C3)c(/C=C(\C)C(=O)O)c2)cc1` (centres undefined), 106 to 108 °C; as for `COc1ccc(C(NC(C)c2cc(F)cc(F)c2)c2cc(N)ccc2OC)cc1` (centres undefined), 105 to 106 °C. The same measure for `CCCCOC(=O)C(C)Oc1ccc(COc2ccc(Cl)cc2)cc1` (centres undefined): 66 °C.
